These are literature values, as cited in US6815463B2, “Laulimalide derivatives” (Kosan Biosciences, Inc., priority 2001, dated 2004).

The series has as its system microtubules. The settings on record: for stabilization of microtubules: similar to paclitaxel, Mooberry et al. 1999, WO 01/54689.

For `C=C1C[C@H](C)C[C@@H]2CC=C[C@@H](C/C=C\C(=O)O[C@H]3C[C@@H](O[C@H]3/C=C/[C@@H]3CC(C)=CCO3)[C@@H](O)[C@@H](O)C1)O2` [isolaulimalide], the stabilization of microtubules entry was “potent stabilizers of microtubules”. Also, the “potency as stabilizer of microtubule polymerization relative to laulimalide” value (comparison with laulimalide) is recorded as “less potent stabilizer of microtubule polymerization than laulimalide”.

`C=C1C[C@H](C)C[C@@H]2CC=C[C@@H](C/C=C\C(=O)O[C@H]([C@@H](O)/C=C/[C@@H]3CC(C)=CCO3)C[C@@H]3O[C@H]3[C@@H](O)C1)O2` [laulimalide, Laulimalide]: the stabilization of microtubules entry is “potent stabilizers of microtubules”.
